Read-outs that look alike come from different tables or passages of the source.
Columns and labels:
U251 cells [1] = test: MTT cell proliferation assay; settings: Homo sapiens
ACCM cells = test: Lung metastasis after injection of ACCM cells; assay type: in vivo, mouse; settings: daily treatment
Procedure: Measuring the effect of CBD on the aggressiveness of head and neck as well as salivary gland cancer cells. Head and neck cancer cell lines (SAS and HSC-2 in the upper panels) and salivary gland cancer cell lines (ACCM and ACC2 in the lower panels) were treated with CBD.

Ki67 = test: Immunohistochemical detection of Ki67 in lung metastatic foci; assay type: in vivo, mouse; settings: 1 mg/kg
Procedure: CBD down-regulates Id-1 expression and breast cancer cell proliferation in lung metastatic foci. […] Lung tissue from mice treated with vehicle or CBD (1 mg/kg) were evaluated for Id-1 expression and Ki67, a marker of cellular proliferation (FIG. 5, panel A).
Immunohistochemical detection of Id-1 and Ki67 was performed in lung tissues of vehicle and CBD treated mice. Nuclei were stained with hematoxylin. […] The intensity of the immunohistochemical (IHC) detection of Id-1 was then graded from 0 to 4.

MDA-MB231 cells = test: Xenograft mouse model of human breast cancer lung metastasis; assay type: in vivo
Procedure: In-vivo metastatic studies using a Xenograph mouse model for human breast cancer with CBD. […] Lung metastases were generated in Nude mice after tail vein injection of 1×10^6 MDA-MB231-luc-D3H2LN cells. One day after the injection, the tumor bearing mice were injected i.p. once a day with vehicle or 0.5 mg/kg and 1 mg/kg CBD for three weeks. Visible lung metastases were then counted and measured by using a dissecting microscope.

U251 cells [2] = test: Cell cycle analysis (PI staining, FACS); assay type: cell-based, human; settings: THC 1.7 μM, CBD 0.4 μM
Procedure: Cell cycle analysis: U251 cells were grown in Petri dishes (100 mm×15 mm) and received drug treatments for 2 days. On the third day, the cells were harvested and centrifuged at 1200 rpm for 5 minutes. The pellet was washed 1× with PBS+1% BSA, and centrifuged again. The pellet was re-suspended in 0.5 ml of 2% paraformaldehyde (diluted with PBS) and left to fix overnight at room temperature. The next day the cells were pelleted and re-suspended in 0.5 ml 0.3% Triton in PBS and incubated for 5 minutes at room temperature. The cells were then washed 2 times with PBS+1% BSA. The cells were finally suspended in PBS (0.1% BSA) with 10 ug/ml Propidium Iodide and 100 μg/ml RNAse. The cells were incubated for 30 minutes at room temperature before being stored at 4° C. Cell cycle was measured using a FACS Calibur using Cell Quest Pro and Modfit software.
Apoptosis Studies using U251 cells with Δ^9-THC and/or CBD. […] Therefore, U251 cells were treated with THC and CBD alone or with the combination of the two, and cell cycle was analyzed using cell flow cytometery (FIG. 20). […] Additionally, there was an increase in the population of cells in the G2/M phase. These changes in G1, S and G2/M phase are hallmarks of cell cycle arrest.
Albeit, the magnitude of these effects was reduced compared to those observed with the combination treatment.

ROS = ROS measurement in MDA-MB231 cells; assay type: cell-based, human; settings: for generation of ROS: two days, approximate IC50 for CBD and THC
From the text: In culture, CBD-induced generation of ROS is a primary mechanism that leads to inhibition of cell growth, invasion, and survival across multiple cancers. The generation of ROS by CBD leads to the inhibition of Id-1 expression in breast cancer cells. […] The ability of CBD and the O-1663 CBD analog to stimulate the production of ROS was next compared. […] The involvement of CB2 receptors in the productions of ROS produced by CBD and the O-1663 CBD analog was next investigated.

p8 and LC3 = test: p8 mRNA and LC3 (autophagy marker) in MDA-MB231 cells; assay type: cell-based, human; settings: two days
Id-1 promoter = Id-1 promoter luciferase reporter assay in MDA-MB231 cells; assay type: cell-based, human; settings: 1.5 μM, 2 or 3 days
Procedure: Id-1 promoter reporter assays: A SacI-BspHI fragment of 2.2 kb corresponding to the 5′ upstream region of human Id-1 gene and driving a luciferase gene in a PGL-3 vector (Promega) was used (Id-1-sbsluc). Cells were plated in six well dishes in medium supplemented with 10% FBS and 5 μg/ml insulin. After 24 hours, cells were cotransfected with 6 μg of luciferase reporter plasmids and 2 μg of pCMVβ (Clontech) using Superfect reagent (Qiagen). pCMVβ contained bacterial β-galactosidase and served to control for variation in transfection efficiency. 3 hours after transfection, the cells were rinsed twice with PBS and were cultured in the absence or presence of CBD for 48-72 h. Cell pellets were lysed in 80 μl of reporter lysis buffer (Promega) for 10 min at room temperature. Lysed cells were centrifuged and supernatants harvested. Luciferase and β-gal assays were performed using Luciferase Assay System (Promega), β-Gal Assay Kit (Clontech) and a 2010 luminometer (Pharmingen).
Gene Expression Assays looking at Id-1 gene epression with CBD in MDA-MB231 cells. […] Twenty-four hours after transfection, MDA-MB231-Id-1-luc cells were treated with CBD for 2 or 3 days and luciferase activity was measured (FIG. 3, panel B and panel C). […] These findings correlated to the data obtained when the expression of the Id-1 protein was assessed by Western analysis.

U251 GBM cells = test: Intracranial U251 GBM xenograft in nu/nu mice; assay type: in vivo, mouse
Procedure: Effects of CBD on GBM cell invasion in In Vivo Studies. To determine whether CBD could inhibit GBM cell invasion through intact brain tissue, an organotypic brain slice assay was utilized. GFP-labeled U251 cells were treated for two days in culture with vehicle or CBD. On the third day, the cells were harvested and transferred to the top of a 0.5 mm coronal rat brain slice obtain from a postnatal day 3 rat pup. A porous cell culture insert containing the slice was suspended for three days in a well containing conditioned media with either vehicle or 1 μM CBD. […] GBM tumors were generated in nu/nu mice by intracranial injection of U251 GBM cells. […] CBD produced a robust reduction of GBM progression, decreasing the tumor area by 95% (FIG. 14, panels B and C). […] This occurred concomitantly with a decrease in tumor cell proliferation (the number of Ki67-positive nuclei was decreased by 87%±9 (p<0.0001, Student's t-test)) (FIG. 14, panel D).

U87 cells = test: MTT cell proliferation assay; settings: Homo sapiens, U-87 MG, 72 h, read-out: CBD IC50, U87
CB2 receptors = CB2 receptors (Homo sapiens, UniProt P34972); test: Selectivity screen for CB2 receptors; assay type: binding
Sequence of CB2 receptors (P34972 whole entry): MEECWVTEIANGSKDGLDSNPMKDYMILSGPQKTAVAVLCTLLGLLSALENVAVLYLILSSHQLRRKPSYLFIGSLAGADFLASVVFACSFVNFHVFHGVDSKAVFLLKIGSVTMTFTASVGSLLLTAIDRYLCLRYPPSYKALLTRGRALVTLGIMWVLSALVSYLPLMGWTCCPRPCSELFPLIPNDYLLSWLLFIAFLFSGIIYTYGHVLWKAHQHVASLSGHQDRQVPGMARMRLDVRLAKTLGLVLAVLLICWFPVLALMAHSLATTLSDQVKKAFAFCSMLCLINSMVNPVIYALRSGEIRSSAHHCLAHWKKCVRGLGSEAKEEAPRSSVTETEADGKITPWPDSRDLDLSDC

SMILES | IC50 (U251 cells [1]; U-251, 72 h, read-out: CBD IC50, U251) [nM] | IC50 (U251 cells [1]; U-251, read-out: IC50, U251) [nM] | number of lung metastatic foci (ACCM cells) | Ki67 in metastatic foci (Ki67) | reduction in the number of metastases (MDA-MB231 cells; MDA-MB231-luc-D3H2LN, 0.5 mg/kg and 1 mg/kg i.p. for three weeks) [%] | cell cycle phases (U251 cells [2]) | reversal of ROS in the presence of SR14458 (ROS) | generation of ROS (ROS) | up-regulation of p8 and LC3 (p8 and LC3) | luciferase activity (Id-1 promoter) (Id-1 promoter) | mice in which no tumor cells were observed (U251 GBM cells; 15 mg/kg) | decrease of tumor area (U251 GBM cells; 15 mg/kg i.p. 5 days a week for 28 days) [%] | decrease in number of Ki67-positive nuclei (U251 GBM cells; 15 mg/kg, tumors responding to treatment) | Id-1 expression in tumors (U251 GBM cells; tumors responding to treatment) | IC50 (U87 cells) [nM] | selectivity CB2 receptors over CB1 receptors (CB2 receptors) | potency compared with CBD, human MDA-MB231 model of metastasis (MDA-MB231 cells; i.p. daily six weeks) | ROS reversed in the presence of SR14458 (ROS) [%]
C=C(C)[C@@H]1CCC(C)=C[C@H]1c1c(O)cc(CCCCC)cc1O [CBD, cannabidiol] | 600 | 2900 | significantly reduced upon CBD treatment | significant down-regulation of Ki67 | ≥ 70 | increases in the population of cells in G1 and G2/M phase and decreases in cells in S phase | small but significant reversal of ROS | robust up-regulation of ROS | did not produce up-regulation of p8 and LC3 | significant inhibition of luciferase activity | one of the five mice | 95 | 87%±9 | significant down-regulation of Id-1 expression | 700 | – | – | –
CCCCC(C)(C)c1cc(O)c(C2CCC(C3CCCCC3)CC2)c(O)c1 (stereo not drawn) [Compound O-1663] | – | 530 | – | – | – | – | – | significantly more potent and efficacious than CBD at generating ROS | able to up-regulate p8 and the marker of autophagy LC3 | – | – | – | – | – | – | selective for targeting CB2 receptors over CB1 receptors | more potent than CBD | > 50
